Test results from ChEMBL document CHEMBL3885861, “Open TG-GATES”.

Species: Rattus norvegicus
Assay: Open TG-GATES - Regimen: Single
Type: toxicity, organism-based, Sprague-Dawley
Design: regimen Single, gender Male, age 6 weeks
Conditions: in vivo, ip, 1500 mg/kg, route intraperitoneal injection, dose level High; for APTT / Bas / Eos / Fbg / Hb / Ht / Lym / MCH / MCHC / MCV / Mono / Neu / PT / Plat / RBC / Ret / WBC: tissue Blood; for KIDNEY_L / KIDNEY_R / KIDNEY_TOTAL: tissue Kidney; for LIVER: tissue Liver; for A/G / ALP / ALT / AST / BUN / CRE / Ca / Cl / DBIL / GLC / IP / K / LDH / Na / PL / RALB / TBIL / TC / TG / TP / gamma-GTP: tissue Plasma

## CCCCS(=N)(=O)CCC(N)C(=O)O (configuration not stated) [BUTHIONINE SULFOXIMINE]
3 h
  TERMINAL_BW: 213.4 g
  APTT: 16 s
  Bas: 0%
  Eos: 1%
  Fbg: 216.4 mg/dL
  Hb: 13.2 g/dL
  Ht: 39.5%
  Lym: 61.4%
  MCH: 21.6 pg
  MCHC: 33.4%
  MCV: 64.7 fL
  Mono: 9.2%
  Neu: 29%
  PT: 12 s
  Plat: 119.7 x10_4/uL
  RBC: 610.4 x10_4/ul
  Ret: 8.8%
  WBC: 106.8 x10_2/uL
  KIDNEY_L: 0.9 g
  KIDNEY_R: 1 g
  KIDNEY_TOTAL: 1.9 g
  LIVER: 10.1 g
  A/G: 2.2
  ALP: 832 IU/L
  ALT: 43.4 IU/L
  AST: 48 IU/L
  BUN: 15.2 mg/dL
  CRE: 0.4 mg/dL
  Ca: 10.9 mg/dL
  Cl: 104.8 meq/L
  DBIL: 0.066 mg/dL
  GLC: 191.2 mg/dL
  IP: 9.8 mg/dL
  K: 4.5 meq/L
  LDH: 89.2 IU/L
  Na: 138.8 meq/L
  PL: 137.8 mg/dL
  RALB: 3.8 g/dL
  TBIL: 0.3 mg/dL
  TC: 70.2 mg/dL
  TG: 57.8 mg/dL
  TP: 5.5 g/dL
  gamma-GTP: 1 IU/L
6 h
  TERMINAL_BW: 215.9 g
  APTT: 16.4 s
  Bas: 0%
  Eos: 0.8%
  Fbg: 218.6 mg/dL
  Hb: 13.3 g/dL
  Ht: 39.6%
  Lym: 67.2%
  MCH: 22 pg
  MCHC: 33.6%
  MCV: 65.5 fL
  Mono: 6.6%
  Neu: 25.6%
  PT: 10.8 s
  Plat: 124.2 x10_4/uL
  RBC: 605 x10_4/ul
  Ret: 8.3%
  WBC: 104.4 x10_2/uL
  KIDNEY_L: 0.9 g
  KIDNEY_R: 1 g
  KIDNEY_TOTAL: 1.9 g
  LIVER: 9 g
  A/G: 1.9
  ALP: 696.6 IU/L
  ALT: 31 IU/L
  AST: 56.2 IU/L
  BUN: 11.6 mg/dL
  CRE: 0.7 mg/dL
  Ca: 10.9 mg/dL
  Cl: 104.6 meq/L
  DBIL: 0.004 mg/dL
  GLC: 189.2 mg/dL
  IP: 10 mg/dL
  K: 4.5 meq/L
  LDH: 107.8 IU/L
  Na: 140 meq/L
  PL: 138.6 mg/dL
  RALB: 3.5 g/dL
  TBIL: 0.3 mg/dL
  TC: 80.8 mg/dL
  TG: 46.4 mg/dL
  TP: 5.4 g/dL
  gamma-GTP: 1.6 IU/L
9 h
  TERMINAL_BW: 211.3 g
  APTT: 17.8 s
  Bas: 0%
  Eos: 0.8%
  Fbg: 255.4 mg/dL
  Hb: 13.6 g/dL
  Ht: 40.4%
  Lym: 57.4%
  MCH: 21.8 pg
  MCHC: 33.7%
  MCV: 64.8 fL
  Mono: 5.2%
  Neu: 36.6%
  PT: 11.3 s
  Plat: 119.4 x10_4/uL
  RBC: 623.4 x10_4/ul
  Ret: 8.2%
  WBC: 103.7 x10_2/uL
  KIDNEY_L: 1 g
  KIDNEY_R: 1 g
  KIDNEY_TOTAL: 1.9 g
  LIVER: 8.6 g
  A/G: 1.9
  ALP: 782.6 IU/L
  ALT: 27 IU/L
  AST: 47.4 IU/L
  BUN: 12.2 mg/dL
  CRE: 0.5 mg/dL
  Ca: 11.3 mg/dL
  Cl: 106.2 meq/L
  DBIL: 0.012 mg/dL
  GLC: 202.4 mg/dL
  IP: 9.2 mg/dL
  K: 4.9 meq/L
  LDH: 89.4 IU/L
  Na: 138.6 meq/L
  PL: 137.6 mg/dL
  RALB: 3.7 g/dL
  TBIL: 0.3 mg/dL
  TC: 80.8 mg/dL
  TG: 37.6 mg/dL
  TP: 5.6 g/dL
  gamma-GTP: 1.4 IU/L
24 h
  TERMINAL_BW: 224.8 g
  APTT: 16.6 s
  Bas: 0%
  Eos: 1.4%
  Fbg: 273.2 mg/dL
  Hb: 13.3 g/dL
  Ht: 39.7%
  Lym: 73.8%
  MCH: 21.7 pg
  MCHC: 33.5%
  MCV: 64.8 fL
  Mono: 7.2%
  Neu: 17.8%
  PT: 11.7 s
  Plat: 119.6 x10_4/uL
  RBC: 613.4 x10_4/ul
  Ret: 9.3%
  WBC: 98.2 x10_2/uL
  KIDNEY_L: 1 g
  KIDNEY_R: 1 g
  KIDNEY_TOTAL: 2 g
  LIVER: 10.5 g
  A/G: 1.8
  ALP: 1035 IU/L
  ALT: 29.4 IU/L
  AST: 52.6 IU/L
  BUN: 19 mg/dL
  CRE: 0.5 mg/dL
  Ca: 11.3 mg/dL
  Cl: 104.2 meq/L
  DBIL: 0.024 mg/dL
  GLC: 205 mg/dL
  IP: 8.7 mg/dL
  K: 4.7 meq/L
  LDH: 104.8 IU/L
  Na: 139 meq/L
  PL: 143.6 mg/dL
  RALB: 3.7 g/dL
  TBIL: 0.3 mg/dL
  TC: 81.6 mg/dL
  TG: 67.4 mg/dL
  TP: 5.8 g/dL
  gamma-GTP: 1.4 IU/L
